Experimental data published in article PMC10298275, “Antiproliferative Activity and Impact on Human Gut Microbiota of New O-Alkyl Derivatives of Naringenin and Their Oximes” (International Journal of Molecular Sciences, 2023).
Values after ≈ are worked out from the molar mass of the structure shown. Where two headings read alike, the source gives them in different places.

Key:
SRB assay, cytotoxicity [1] = type: cell-based, human; conditions: human, HT-29 cells; HT-29, SRB, 24 h exposure, three independent repeats; read-out: Cytotoxicity (IC50 ± SD)
Method: (§1) The HT-29 cells (ATCC, Manassas, VA, USA) were cultured within α-MEM (IIET PAS, Wrocław, Poland) supplemented with 10% fetal bovine serum (Sigma, St. Louis, MO, USA), antimycotic (100 μg/mL penicillin, 100 μg/mL streptomycin and 0.25 μg/mL amphotericin) (Sigma) and 2 mM glutamine (Sigma). The 3T3-L1 cells (ATCC, Manassas, VA, USA) were cultivated using DMEM high-glucose medium (IIET PAS, Wrocław, Poland) supplemented as above. Both cell lines were cultured at 37 °C in an atmosphere of 5% CO2.
(§2) The sulforhodamine B (SRB) assay was performed according to a previously published protocol. Briefly, 1 × 10^4 HT-29 or 5 × 10^3 3T3-L1 cells were seeded into 96-well plates. After attaching to the plate surface, the cells were incubated with 100, 75, 50, 25, 10 or 1 µg/mL of the investigated compounds for 24 h. After this time, proteins were precipitated with trichloroacetic acid and stained with SRB. The absorbance was measured at 560 nm using a GloMax Discover Microplate Reader (Promega, Madison, WI, USA).

HT-29 cells [2] = test: SRB assay, cytotoxicity; type: cell-based, human; conditions: HT-29, SRB, up to 100 µg/mL
Method: as §1, §2

SRB assay, cytotoxicity [3] = type: cell-based, mouse; conditions: mouse, 3T3-L1 cells; 3T3-L1, SRB, 24 h exposure, three independent repeats; read-out: Cytotoxicity (IC50 ± SD)
Method: as §1, §2

[4] = tested on: Enterococcus faecalis ATCC 29212; test: MBC assay; type: cell-based; conditions: Enterococcus faecalis, ATCC29212; E. faecalis ATCC 29212; read-out: MBC
Method: (§3) The minimum bactericidal concentration (MBC) was tested for all naringenin derivatives. First, 10 µL of medium was taken from the plate, on which the MIC was determined for the MIC value, the value below and the two values above. This volume was transferred to TSA or MC agar. After 18–24 h (depending on strain) incubation at 37 °C, colonies were counted. The concentration of test compounds at which no bacterial growth was observed was defined as the MBC value. Each experiment was repeated 3 times.

Escherichia coli K12 [5] = test: MBC assay; type: cell-based; conditions: Escherichia coli; E. coli K12; read-out: MBC
Method: as §3

[6] = tested on: Staphylococcus aureus ATCC 25923; test: MBC assay; type: cell-based; conditions: Staphylococcus aureus, ATCC25923; S. aureus ATCC 25923; read-out: MBC
Method: as §3

[7] = tested on: Enterococcus faecalis ATCC 29212; test: MIC, microdilution method; type: cell-based; conditions: E. faecalis ATCC 29212, MHB, 24 h, 37 °C, tested 512 to 1 µg/mL
Method: (§4) Non-pathogenic reference strains representing the intestinal microbiome were used for the studies: Escherichia coli K12, Staphylococcus aureus ATCC 25923 and Enterococcus faecalis ATCC 29212. All strains were obtained from the collection of the Department of Microbiology at the Medical University of Wrocław.
(§5) The strains were received from the museum (−80 °C) and grown in tryptic soy broth (TSB, OXOID, Basingstoke, UK) under continuous shaking conditions (MaxQTM6000 incubator shaker, Thermo Scientific, Waltham, MA, USA) at 125 rpm at 37 °C. Then, they were moved to the growth media, namely tryptic soy agar (TSA, OXOID, Basingstoke, UK) and MacConkey agar (MC, Millipore, Darmstadt, Germany) for S. aureus or E. faecalis and E. coli, respectively.
(§6) A fresh 18–24 h culture was used for each study. For this purpose, a culture with a density of 1.5 × 10^8 CFU/mL in Mueller–Hinton broth (MHB, OXOID, Basingstoke, UK) was prepared and used for further microdilution studies.
(§7) The antimicrobial activity of the O-alkyl derivatives of naringenin and their oximes was tested in vitro using the microdilution method, showing the minimum inhibitory concentration (MIC), in accordance with the recommendations of the European Antimicrobial Susceptibility Testing Committee EUCAST [44]. MICs were determined in 96-well microdilution plates. The tests were carried out in MHB medium. The O-alkyl derivatives of naringenin and their oximes were tested in the concentration range of 512 to 1 µg/mL in a geometric process in MHB medium. The final concentration of the test strains in each test well was 5 × 10^5 CFU/mL. MICs were read after 18 h (for E. coli and S. aureus) and 24 h (for E. faecalis) incubation at 37 °C.
(§8) A strain growth control (tested strain in medium), background control for tested compounds (naringenin derivatives in MHB), medium control (only pure MHB) and compound solvent control (DMSO at test compound concentration, strain and MHB) were set for each experiment. Each test was set up with three independent experiments, each as three separate replicates.
(§9) The […], OD600, was measured in a plate reader (ASYS UVM340, BIOCHROM Ltd., Cambridge, UK). The background control of the tested compounds and the clean medium were included in the absorbance results.

Escherichia coli K12 [8] = test: MIC, microdilution method; type: cell-based; conditions: Escherichia coli; E. coli K12; MHB, 18 h, 37 °C; tested 512 to 1 µg/mL; read-out: MIC
Method: as §4, §5, §6, §7, §8, §9

[9] = tested on: Staphylococcus aureus ATCC 25923; test: MIC, microdilution method; type: cell-based; conditions: S. aureus ATCC 25923, MHB, 18 h, 37 °C, tested 512 to 1 µg/mL
Method: as §4, §5, §6, §7, §8, §9

HT-29 cells [10] = test: MTT assay, cell viability; type: cell-based, human; conditions: HT-29, highest concentration 100 µg/mL, 24 h
Method: as §1
First, 1 × 10^4 HT-29 cells or 5 × 10^3 3T3-L1 cells were seeded into a 96-well plate and incubated for one night. Then, cells were treated with different concentrations of the investigated compounds within 24 h. Afterwards, the medium was replaced with a fresh medium containing 0.5 mg/mL of 3-(4,5-dimethylthiazol-2-yl)-2,5-diphenyl-2H-tetrazolium bromide (MTT, Sigma) and incubated for 2 h at 37 °C. After removing the medium, the formazan salts were dissolved in dimethyl sulfoxide (DMSO, Sigma), and the absorbance of the solution was measured at 560 nm using a plate reader.

[11] = Enterococcus faecalis, ATCC29212, read-out: MIC
[12] = Staphylococcus aureus, ATCC25923, read-out: MIC

## CCCCCCCOc1ccc([C@@H]2CC(=O)c3c(O)cc(OCCCCCCC)cc3O2)cc1 [A4, 7,4′-Di-O-heptylnaringenin]
SRB assay, cytotoxicity [1]
  IC50 at 24 h: > 100 µg/mL
HT-29 cells [2]
  effect on the proliferation of the HT-29 cell line: no effect on the proliferation
SRB assay, cytotoxicity [3]
  IC50 at 24 h: > 100 µg/mL
[4]
  MBC: > 512 µg/mL
Escherichia coli K12 [5]
  MBC: > 512 µg/mL
[6]
  MBC: > 512 µg/mL
[7]; [11]
  MIC: 32 µg/mL (≈ 68.3 µM)
Escherichia coli K12 [8]
  MIC: > 512 µg/mL
[9]
  MIC: >512 (>512) µg/mL
[9]; [12]
  MIC: > 512 µg/mL
other
  melting point: 74 to 75 °C
HT-29 cells [10]
  effect on colon adenocarcinoma cells (viability, MTT): weak

## CCCCCCCCOc1ccc([C@@H]2CC(=O)c3c(O)cc(OCCCCCCCC)cc3O2)cc1 [A6, 7,4′-Di-O-octylnaringenin]
SRB assay, cytotoxicity [1]
  IC50 at 24 h: > 100 µg/mL
HT-29 cells [2]
  effect on the proliferation of the HT-29 cell line: no effect on the proliferation
SRB assay, cytotoxicity [3]
  IC50 at 24 h: > 100 µg/mL
[4]
  MBC: > 512 µg/mL
Escherichia coli K12 [5]
  MBC: > 512 µg/mL
[6]
  MBC: > 512 µg/mL
[7]; [11]
  MIC: 32 µg/mL (≈ 64.4 µM)
Escherichia coli K12 [8]
  MIC: > 512 µg/mL
[9]
  MIC: >512 (>512) µg/mL
[9]; [12]
  MIC: > 512 µg/mL
other
  melting point: 60 to 61 °C
HT-29 cells [10]
  effect on colon adenocarcinoma cells (viability, MTT): weak

## CCCCCCCCCOc1ccc([C@@H]2CC(=O)c3c(O)cc(OCCCCCCCCC)cc3O2)cc1 [A8, 7,4′-Di-O-nonylnaringenin]
SRB assay, cytotoxicity [1]
  IC50 at 24 h: > 100 µg/mL
HT-29 cells [2]
  effect on the proliferation of the HT-29 cell line: no effect on the proliferation
SRB assay, cytotoxicity [3]
  IC50 at 24 h: > 100 µg/mL
[4]
  MBC: > 512 µg/mL
Escherichia coli K12 [5]
  MBC: > 512 µg/mL
[6]
  MBC: > 512 µg/mL
[7]
  MIC: 512 (>512) µg/mL
[7]; [11]
  MIC: 512 µg/mL (≈ 976 µM)
Escherichia coli K12 [8]
  MIC: > 512 µg/mL
[9]
  MIC: 512 (>512) µg/mL
[9]; [12]
  MIC: 512 µg/mL (≈ 976 µM)
other
  melting point: 70 to 71 °C
HT-29 cells [10]
  effect on colon adenocarcinoma cells (viability, MTT): weak

## CCCCCCCCCCCOc1ccc([C@@H]2CC(=O)c3c(O)cc(OCCCCCCCCCCC)cc3O2)cc1 [A10, 7,4′-Di-O-undecylnaringenin]
SRB assay, cytotoxicity [1]
  IC50 at 24 h: > 100 µg/mL
HT-29 cells [2]
  effect on the proliferation of the HT-29 cell line: no effect on the proliferation
SRB assay, cytotoxicity [3]
  IC50 at 24 h: > 100 µg/mL
[4]
  MBC: > 512 µg/mL
Escherichia coli K12 [5]
  MBC: > 512 µg/mL
[6]
  MBC: > 512 µg/mL
[7]; [11]
  MIC: 32 µg/mL (≈ 55.1 µM)
Escherichia coli K12 [8]
  MIC: > 512 µg/mL
[9]; [12]
  MIC: 256 µg/mL (≈ 441 µM)
other
  melting point: 63 to 64 °C
HT-29 cells [10]
  effect on colon adenocarcinoma cells (viability, MTT): weak

## CCCCCCCCCOc1ccc([C@@H]2CC(=NO)c3c(O)cc(OCCCCCCCCC)cc3O2)cc1 [B8, 7,4′-Di-O-nonylnaringenin oxime]
SRB assay, cytotoxicity [1]
  IC50 at 24 h: > 100 µg/mL
HT-29 cells [2]
  effect on the proliferation of the HT-29 cell line: no effect on the proliferation
SRB assay, cytotoxicity [3]
  IC50 at 24 h: > 100 µg/mL
[4]
  MBC: > 512 µg/mL
Escherichia coli K12 [5]
  MBC: > 512 µg/mL
[6]
  MBC: > 512 µg/mL
[7]
  MIC: >512 (>512) µg/mL
[7]; [11]
  MIC: > 512 µg/mL
Escherichia coli K12 [8]
  MIC: > 512 µg/mL
[9]; [12]
  MIC: > 512 µg/mL
other
  melting point: 87 to 88 °C

## CCCCCCCCCCCOc1ccc([C@@H]2CC(=NO)c3c(O)cc(OCCCCCCCCCCC)cc3O2)cc1 [B10, 7,4′-Di-O-undecylnaringenin oxime]
SRB assay, cytotoxicity [1]
  IC50 at 24 h: > 100 µg/mL
HT-29 cells [2]
  effect on the proliferation of the HT-29 cell line: no effect on the proliferation
SRB assay, cytotoxicity [3]
  IC50 at 24 h: > 100 µg/mL
[4]
  MBC: > 512 µg/mL
Escherichia coli K12 [5]
  MBC: > 512 µg/mL
[6]
  MBC: > 512 µg/mL
[7]
  MIC: >512 (>512) µg/mL
[7]; [11]
  MIC: > 512 µg/mL
Escherichia coli K12 [8]
  MIC: > 512 µg/mL
[9]; [12]
  MIC: > 512 µg/mL
other
  melting point: 95 to 96 °C
